# How the values were obtained:
# [1] = tested on: (+)-MK-801-induced memory deficits; assay: Novel object recognition (NOR) test in (+)-MK-801 treated rats; type: in vivo, male Wistar rats; details: rat; for Total Exploratory Time in T2 Session: vehicle 49.67 ± 4.63
# Protocol: The rats were injected with the respective compounds for 21 consecutive days at the minimum active doses selected previously, based on acute treatment and assessment in the NOR test. The protocol for the NOR test was adapted from the original work and the test was performed according to the previously described protocol, 24 h after the last injection of the investigated compound. The discrimination index (DI) was calculated according to the formula:(7) DI=(EB−EA)/(EA+EB) where EB is the exploration time of novel object during the T2 session and EA is the exploration time of […].
# PQA-AZ4 and PQA-AZ-6 were administered for 60 and 30 min, respectively, before the T1 phase (the familiarization phase). MK-801 was used to attenuate learning and was administered at a dose of 0.1 mg/kg (i.p.) 30 min before the familiarization phase (T1). The total exploration time in T2 was used to determine the influence of the treatment on the exploratory activity of the animals.
# [2] = Ferric-reducing antioxidant power (FRAP) of serum; type: in vivo, rats; details: rat, 1 mg/kg/day i.p., 21 days
# Protocol: The assay was performed according to Benzie and Strain [46] with some modifications. The FRAP working solution was prepared before the start of the analysis, namely, 0.3 mol acetate buffer (pH 3.6), 0.01 mol TPTZ (2,4,6-tripyridyl-s-triazine; Sigma-Aldrich) in 0.04 mol HCl (POCh, Gliwice, Poland), and 0.02 M FeCl3×6H2O in water (iron (III) chloride hexahydrate; Chempur, Piekary Śląskie, Poland) were mixed in a volumetric ratio of 10:1:1 and protected from light.
# Next, 20 µL of the plasma sample tested, brain homogenate, or FeSO4×7H2O solution was mixed with 180 µL of the FRAP working solution. The mixtures obtained were incubated at 37 °C for 30 min and their absorbance was measured at 593 nm. FeSO4×7H2O (100–1000 µM/L) was used for a calibration curve. Deionized water with FRAP solution was used as a blank.
# rats [3] = assay: 18-hour spontaneous activity monitoring; type: in vivo, male Wistar rats; details: rat, after 20-day administration, 1 mg/kg/day i.p., 18-h monitoring
# Protocol: Spontaneous activity was measured on the 20th day of the treatment with a special, innovative, radio-frequency identification system (RFID-system), TraffiCage (TSE-Systems, Bad Homburg, Germany). The test was conducted according to the method described previously. The animals had RFID transmitters implanted subcutaneously, which tracked the time they spent in different areas of the cage.
# [4] = Serum glucose, triglyceride and cholesterol concentrations; type: in vivo, rats; details: rat, 1 mg/kg/day i.p., 21 days
# Protocol: The blood samples were collected immediately after decapitation and then centrifuged at 600× g […], 4 °C, to separate the plasma. The blood was used to determine metabolic parameters such as glucose, cholesterol, and triglyceride levels, together with liver enzymatic activity.
# Standard enzymatic spectrophotometric tests (Biomaxima S.A., Lublin, Poland) were used to determine glucose, cholesterol, and triglyceride levels in the serum. In the presence of an appropriate enzyme, the substrate was converted to a colored compound. Absorbance was measured at a wavelength of 500 nm.
# rats [5] = assay: Forced swim test (FST); type: in vivo, male Wistar rats; details: rat
# Protocol: The rats were injected for 21 consecutive days at a dose of 1 mg/kg, similar to the dose used in acute treatment, as per data presented in Supplementary Materials (Table S1). The FST was conducted according to the method of Porsolt. On the first day of the experiment, the animals were gently placed individually for 15 min in Plexiglas cylinders (40 cm high, 18 cm in diameter) containing 15 cm of water maintained at 23–25 °C. On removal from water, the rats were placed for 30 min in a Plexiglas box under a 60 W bulb to dry. On the following day (24 h later), the rats were replaced in the cylinder and the total duration of immobility was recorded during the whole 5 min test period. Immobility was assigned when no additional activity was observed other than that necessary to keep the rat’s head above the water. Fresh water was used for each animal.
# FST after acute administration of the investigated compounds
# Rats were injected 60 min before the test at a dose of 1 mg/kg. FST was carried out according to the method of Porsolt, and the same procedure was used for chronic treatment.
# Table S1. Effect of acute treatment of PQA-AZ4, PQA-AZ6, and PQ-10 on the immobility time in the […]
# Compound (mg/kg) Immobility time (s)
# Compounds were injected i.p. 60 min before the test. Values represent the means ± SEM of immobility in the FST during a 5 min test session. The data were analyzed using one -way ANOVA, followed by Bonferroni‘s post hoc test; NS = nonsignificant; N=7-8.
# Bdnf gene = Bdnf gene expression in brain structures (RT-qPCR, ex vivo); set-up: species or system rats; details: rat, 1 mg/kg/day i.p., 21 days
# Protocol: Animals in all treatment groups were sacrificed by rapid decapitation immediately after the behavioral tests, when the brains and blood samples were collected. For quantitative reverse transcription-polymerase chain reaction (RT-qPCR), the brains of rats were rapidly removed, and the hippocampus and prefrontal cortex were dissected on an ice-cold glass plate. The tissues were frozen in dry ice and stored at −80 °C until required.
# The total RNA was extracted from tissues using an RNA Isolation kit (Thermo Fisher Scientific, Rockford, IL, USA), and its concentration was normalized to 20 ng/μL. Reverse transcription was performed with a High-Capacity Reverse Transcription Kit (Life Technologies, Grand Island, NY, USA). A qPCR fast 96-well reaction plate was used for the process with TaqMan Gene Expression assay (Life Technologies) for brain-derived neurotrophic factor Bdnf (Rn02531967_s1) on an Applied Biosystems® 7500 Fast Real-Time PCR Instrument (Applied Biosystems, Foster City, CA, USA), according to the manufacturer’s protocol. Glyceraldehyde-3-phosphate dehydrogenase, Gapdh (Rn01775763_g1), was selected as endogenous control, based on the pilot experiment. Relative normalized expression was calculated using the ΔΔCq method.
# Body weight measurement = type: in vivo, rats; details: rat, 20-day administration, 1 mg/kg/day i.p.
# Protocol: Body weight was measured every second day, immediately before the administration of drugs.
# [6] = chronic 1 mg/kg/day i.p., 21 days
SMILES,Total Exploratory Time in T2 Session ([1]; (+)-MK-801 0.1 mg/kg i.p. + vehicle),"total antioxidant activity of serum (Fe2+ formed, FRAP) vs control [2]",spontaneous activity vs vehicle (rats [3]),serum glucose concentration vs vehicle [4],serum triglycerides concentration vs vehicle [4],total cholesterol concentration vs vehicle [4],"Immobility time (rats [5]; acute 1 mg/kg i.p., 60 min before test, 5 min session, vehicle 255.9 ± 8.6)",antidepressant-like activity in FST (rats [5]; [6]),decrease of immobility vs. control group in FST (rats [5]; [6]),"Bdnf expression upregulation vs control, hippocampus (Bdnf gene; hippocampus (Hipp))","Bdnf expression upregulation vs control, prefrontal cortex (Bdnf gene; prefrontal cortex (PFX))",weight gain vs vehicle (Body weight measurement),Total Exploratory Time in T2 Session ([1]; 0.3 mg/kg/day i.p. 21 days + (+)-MK-801 0.1 mg/kg),"effect on (+)-MK-801-induced recognition memory deficits (discrimination index) ([1]; 0.3 mg/kg/day i.p., 21 days, (+)-MK-801 0.1 mg/kg i.p.)"
"C[C@]12N[C@H](Cc3ccccc31)c1ccccc12 [(+)-MK-801, Dizocilpine, reference compound]",44.00 ± 4.05 s,,,,,,,,,,,,,
"COc1cc2ncnc(N3CC[C@@H](Oc4cnc5ccccc5n4)C3)c2cc1OC [PQ-10, 6,7-dimethoxy-4-[(3R)-3-(2-quinoxalinyloxy)-1-pyrrolidinyl]-quinazoline, reference compound]",,comparable,No significant effect,did not significantly change,did not significantly change,slight but statistically significant (p < 0.05) increase,249.1 ± 10.4 s,showed antidepressant-like properties,about 9%,about 17 fold,about 34 fold,did not result in a change,"47.13 ± 5.69 F(2,18) = 0.3006; NS s",restored recognition memory deficits

# From article PMC9569954, “The Antidepressant-like Activity, Effects on Recognition Memory Deficits, Bioavailability, and Safety after Chronic Administration of New Dual-Acting Small Compounds Targeting Neuropsychiatric Symptoms in Dementia” (International Journal of Molecular Sciences, 2022)
